Results reported in US20240307294A1, “Topical Composition and Carrier for Administration of Pharmaceutically or Cosmetically Active Ingredients” (EMOLLIVET AB, priority 2013, published 2024).

Test: Carrier dissolution capacity (admixing controlled amounts of active agent)
Assay type: physicochemical
Procedure: The dissolution capacity of different carriers was tested by admixing controlled amounts of active agent.

[1] = carrier Lipoid S100 0.0 / Urea 2.0 / Ethanol 98.0 % w/w
[2] = carrier Lipoid S100 5.0 / Urea 2.0 / Ethanol 93.0 % w/w
[3] = carrier Lipoid S100 10.0 / Urea 2.0 / Ethanol 88.0 % w/w
[4] = carrier Lipoid S100 20.0 / Urea 2.0 / Ethanol 78.0 % w/w
[5] = carrier Lipoid S100 30.0 / Urea 2.0 / Ethanol 68.0 % w/w

Row | Molecule | Highest complete dissolution [1] [% w/w] | Lowest incomplete dissolution [1] [% w/w] | Lowest incomplete dissolution (carrier Lipoid S100 5.0 / Urea 1.0 / Ethanol 94.0 % w/w) [% w/w] | Highest complete dissolution [2] [% w/w] | Lowest incomplete dissolution [2] [% w/w] | Highest complete dissolution [3] [% w/w] | Lowest incomplete dissolution [3] [% w/w] | Highest complete dissolution [4] [% w/w] | Lowest incomplete dissolution [4] [% w/w] | Highest complete dissolution [5] [% w/w] | Lowest incomplete dissolution [5] [% w/w] | Highest complete dissolution (carrier Lipoid S100 49.5 / Urea 1.0 / Ethanol 49.5 % w/w) [% w/w] | Highest complete dissolution (carrier Lipoid S100 3.4 / Urea 2.0 / Ethanol 94.7 % w/w) [% w/w]
1 | C[C@]12CCC(=O)C=C1CC[C@@H]1[C@@H]2[C@@H](O)C[C@@]2(C)[C@H]1CC[C@]2(O)C(=O)CO [Hydrocortisone] | 2.09 | 2.25 | 2.28 | 2.22 | 2.37 | 2.48 | 2.83 | 2.82 | 3.22 | 3.19 | 3.50 | 2.89 | 
2 | Calcium pantothenate | 0.27 | 0.40 |  | 0.50 |  | 0.98 |  | 1.81 |  | 3.17 |  |  | 0.41
